According to ChEMBL document CHEMBL4257227, “Deubiquitinase inhibitors and methods for use of the same” (2016):
Calls of active or inactive are those of the source. No cut-off for these calls is given here.

What was measured:
[1] = test system: MM1.S; test: Antitumor activity against human MM1S cells xenografted in NOD/SCID/gamma-2 knockout mouse assessed as inhibition of tumor volume at 5 to 20 mg/kg, ip once per day for 11 days; format: functional, organism-based
[2] = biological target: Ubiquitin carboxyl-terminal hydrolase 9X (Homo sapiens) (UniProt Q93008); test: Inhibition of Usp9x in human MM1.S cells assessed as reduction in caspase activity by measuring cleaved PARP protein levels at 5 uM incubated for 5 to 240 mins by SDS-PAGE and immunoblotting; format: cell-based
Ubiquitin carboxyl-terminal hydrolase 9X (Homo sapiens), sequence (Q93008 whole entry): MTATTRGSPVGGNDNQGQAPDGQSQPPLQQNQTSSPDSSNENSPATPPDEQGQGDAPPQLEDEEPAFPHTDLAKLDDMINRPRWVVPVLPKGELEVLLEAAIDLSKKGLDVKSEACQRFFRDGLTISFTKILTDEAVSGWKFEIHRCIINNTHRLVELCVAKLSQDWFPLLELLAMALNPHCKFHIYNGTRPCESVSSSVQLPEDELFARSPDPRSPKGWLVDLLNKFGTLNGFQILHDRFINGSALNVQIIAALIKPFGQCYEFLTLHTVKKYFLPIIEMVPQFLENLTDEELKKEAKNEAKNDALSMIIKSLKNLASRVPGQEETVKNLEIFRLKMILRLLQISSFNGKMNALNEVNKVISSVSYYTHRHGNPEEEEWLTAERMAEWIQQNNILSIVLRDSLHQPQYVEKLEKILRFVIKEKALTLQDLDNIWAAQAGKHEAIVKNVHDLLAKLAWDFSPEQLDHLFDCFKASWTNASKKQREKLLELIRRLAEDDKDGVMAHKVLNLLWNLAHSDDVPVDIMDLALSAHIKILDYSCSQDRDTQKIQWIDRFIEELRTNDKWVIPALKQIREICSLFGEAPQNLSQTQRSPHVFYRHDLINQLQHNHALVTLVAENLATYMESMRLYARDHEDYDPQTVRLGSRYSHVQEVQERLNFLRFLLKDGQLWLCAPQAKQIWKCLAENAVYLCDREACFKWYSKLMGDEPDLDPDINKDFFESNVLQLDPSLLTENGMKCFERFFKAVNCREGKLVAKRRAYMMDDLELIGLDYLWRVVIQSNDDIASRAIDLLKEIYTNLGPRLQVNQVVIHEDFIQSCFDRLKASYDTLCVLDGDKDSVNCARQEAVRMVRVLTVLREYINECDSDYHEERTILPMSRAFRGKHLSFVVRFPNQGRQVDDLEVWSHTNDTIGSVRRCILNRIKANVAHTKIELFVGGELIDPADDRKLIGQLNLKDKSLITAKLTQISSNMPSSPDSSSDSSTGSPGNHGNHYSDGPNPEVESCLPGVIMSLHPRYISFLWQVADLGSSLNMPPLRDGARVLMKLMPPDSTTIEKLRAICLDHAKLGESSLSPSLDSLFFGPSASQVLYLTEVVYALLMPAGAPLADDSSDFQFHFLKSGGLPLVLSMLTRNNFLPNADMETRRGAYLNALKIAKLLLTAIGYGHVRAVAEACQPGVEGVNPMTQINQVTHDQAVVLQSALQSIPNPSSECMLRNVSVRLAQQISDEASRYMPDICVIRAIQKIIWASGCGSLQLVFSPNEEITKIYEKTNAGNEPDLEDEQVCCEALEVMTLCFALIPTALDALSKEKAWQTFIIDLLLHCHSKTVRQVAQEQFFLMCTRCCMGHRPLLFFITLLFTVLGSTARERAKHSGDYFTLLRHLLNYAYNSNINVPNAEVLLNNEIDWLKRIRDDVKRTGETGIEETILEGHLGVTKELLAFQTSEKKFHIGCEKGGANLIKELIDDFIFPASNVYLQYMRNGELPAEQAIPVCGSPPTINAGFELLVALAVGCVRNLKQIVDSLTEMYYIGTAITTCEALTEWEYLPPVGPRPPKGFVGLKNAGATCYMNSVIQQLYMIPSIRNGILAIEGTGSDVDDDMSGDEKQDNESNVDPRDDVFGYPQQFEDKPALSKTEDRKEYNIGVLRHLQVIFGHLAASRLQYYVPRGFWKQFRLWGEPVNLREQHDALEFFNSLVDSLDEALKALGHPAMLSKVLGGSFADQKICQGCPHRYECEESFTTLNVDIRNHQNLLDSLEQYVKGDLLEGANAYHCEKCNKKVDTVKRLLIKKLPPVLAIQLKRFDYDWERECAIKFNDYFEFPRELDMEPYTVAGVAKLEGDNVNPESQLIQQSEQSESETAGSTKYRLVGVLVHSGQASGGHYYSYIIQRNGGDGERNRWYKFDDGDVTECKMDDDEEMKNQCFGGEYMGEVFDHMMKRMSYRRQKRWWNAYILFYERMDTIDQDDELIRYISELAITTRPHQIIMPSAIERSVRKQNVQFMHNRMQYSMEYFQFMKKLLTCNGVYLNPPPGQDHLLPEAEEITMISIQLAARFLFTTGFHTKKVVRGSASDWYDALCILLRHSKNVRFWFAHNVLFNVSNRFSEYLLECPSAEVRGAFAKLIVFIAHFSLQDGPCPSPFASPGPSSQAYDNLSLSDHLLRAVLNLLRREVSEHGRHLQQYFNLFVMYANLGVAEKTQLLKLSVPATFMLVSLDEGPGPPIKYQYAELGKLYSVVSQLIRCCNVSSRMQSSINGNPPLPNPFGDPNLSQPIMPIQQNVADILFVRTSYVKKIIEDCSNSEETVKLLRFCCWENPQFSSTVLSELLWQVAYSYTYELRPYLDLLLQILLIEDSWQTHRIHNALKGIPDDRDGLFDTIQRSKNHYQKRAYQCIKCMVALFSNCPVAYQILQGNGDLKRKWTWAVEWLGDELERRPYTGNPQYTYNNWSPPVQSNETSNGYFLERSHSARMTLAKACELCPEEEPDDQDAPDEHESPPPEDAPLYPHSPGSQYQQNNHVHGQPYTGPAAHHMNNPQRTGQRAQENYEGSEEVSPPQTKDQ

[3] = test system: A-375; test: Antitumor activity against human A375 cells xenografted in NOD/SCID/gamma-2 knockout mouse assessed as inhibition of tumor growth at 7.5 mg/kg, ip once per day for 8 days; format: functional, organism-based
[4] = AUClast in Balb/c mouse at 30 mg/kg, po by LC-MS analysis; format: ADME, organism-based; parameters: dose 30 mg/kg, route oral, time 0 - last; conditions: in vivo
[5] = AUClast in Balb/c mouse at 10 mg/kg, iv by LC-MS analysis; format: ADME, organism-based; parameters: dose 10 mg/kg, route intravenous, time 0 - last; conditions: in vivo
[6] = test system: MM1.S; test: Antitumor activity against human MM1S cells xenografted in NOD/SCID/gamma-2 knockout mouse assessed as inhibition of tumor growth at 5 to 20 mg/kg, ip once per day for 14 days; format: functional, organism-based
[7] = biological target: T1, Ubiquitin carboxyl-terminal hydrolase 5 (Homo sapiens) (UniProt P45974); test: Inhibition of USP5 in Vemurafenib sensitive human A375 cells assessed as reduction in ERK phosphorylation
T1 sequence (whole entry): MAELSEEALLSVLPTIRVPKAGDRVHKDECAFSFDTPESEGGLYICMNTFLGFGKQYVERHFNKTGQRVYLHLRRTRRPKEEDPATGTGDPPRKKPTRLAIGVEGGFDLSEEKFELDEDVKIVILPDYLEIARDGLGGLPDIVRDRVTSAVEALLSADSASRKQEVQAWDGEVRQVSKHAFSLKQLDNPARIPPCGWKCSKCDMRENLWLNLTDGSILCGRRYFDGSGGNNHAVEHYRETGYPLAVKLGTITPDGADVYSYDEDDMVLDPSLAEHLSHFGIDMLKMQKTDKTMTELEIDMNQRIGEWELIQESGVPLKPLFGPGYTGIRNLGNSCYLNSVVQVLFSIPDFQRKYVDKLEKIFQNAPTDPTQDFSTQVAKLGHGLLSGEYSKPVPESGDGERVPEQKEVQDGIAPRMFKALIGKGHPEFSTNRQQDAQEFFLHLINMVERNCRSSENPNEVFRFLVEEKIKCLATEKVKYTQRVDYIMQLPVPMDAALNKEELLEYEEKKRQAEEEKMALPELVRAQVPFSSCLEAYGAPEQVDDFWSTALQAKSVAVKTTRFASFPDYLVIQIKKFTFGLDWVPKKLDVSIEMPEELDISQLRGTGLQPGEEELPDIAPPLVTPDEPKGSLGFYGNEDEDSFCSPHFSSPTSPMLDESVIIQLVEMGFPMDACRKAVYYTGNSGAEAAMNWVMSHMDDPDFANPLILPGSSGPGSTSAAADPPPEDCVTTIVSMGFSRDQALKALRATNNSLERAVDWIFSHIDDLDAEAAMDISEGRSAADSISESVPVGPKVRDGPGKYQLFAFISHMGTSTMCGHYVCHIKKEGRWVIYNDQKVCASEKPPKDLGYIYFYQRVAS

[8] = test system: Murine norovirus; test: Antiviral activity against Murine norovirus infected in Swiss Webster bone marrow derived macrophages assessed as reduction in viral plaque forming units; format: functional, organism-based
[9] = Plasma concentration in Balb/c mouse at 10 mg/kg, iv after 7 hrs by LC-MS analysis; format: ADME, organism-based
[10] = test system: Mus musculus; test: Toxicity in human A375 cells xenografted NOD/SCID/gamma-2 knockout mouse assessed effect on body weight at 15 mg/kg, ip once per day for 8 days; format: functional, organism-based
[11] = test system: A-375; test: Induction of p53 protein expression in Vemurafenib sensitive human A375 cells; format: functional, cell-based
[12] = test system: Mus musculus; test: Inhibition of Usp9x in human MM1S cells xenografted in NOD/SCID/gamma-2 knockout mouse assessed as reduction in Mcl-1 protein levels at 15 mg/kg, ip once per day for 14 days; format: functional, organism-based
[13] = test system: A375/R; test: Induction of apoptosis in human A375R cells assessed as induction of PARP cleavage; format: functional, cell-based
[14] = Plasma concentration in Balb/c mouse at 30 mg/kg, po after 4 hrs by LC-MS analysis; format: ADME, organism-based
[15] = Plasma concentration in Balb/c mouse at 10 mg/kg, iv after 4 hrs by LC-MS analysis; format: ADME, organism-based
[16] = biological target: Ubiquitin carboxyl-terminal hydrolase 9X (Homo sapiens) (UniProt Q93008); test: Inhibition of Usp9x in human A375 cells; format: cell-based
[17] = test system: MM1.S; test: Antitumor activity against human MM1S cells xenografted in NOD/SCID/gamma-2 knockout mouse assessed as inhibition of tumor growth at 2.5 to 10 mg/kg, ip once per day for 14 days; format: functional, organism-based
[18] = test system: Mus musculus; test: Inhibition of Usp9x in tumor of human MM1S cells xenografted in NOD/SCID/gamma-2 knockout mouse at 15 mg/kg, ip once per day for 14 days; format: organism-based; conditions: in vivo, 336 h
[19] = test system: A375/R; test: Induction of apoptosis in human A375R cells assessed as induction of Bid cleavage; format: functional, cell-based
[20] = biological target: T1, Ubiquitin carboxyl-terminal hydrolase 5 (Homo sapiens); test: Inhibition of USP5 in Vemurafenib […] human A375R cells assessed as reduction in ERK phosphorylation
[21] = test system: A-375; test: Antitumor activity against human A375 cells xenografted in NOD/SCID/gamma-2 knockout mouse assessed as inhibition of tumor growth at 15 mg/kg, ip once per day for 8 days; format: functional, organism-based
[22] = biological target: T1, Ubiquitin carboxyl-terminal hydrolase 5 (Homo sapiens); test: Inhibition of USP5 in Vemurafenib […] human A375R cells assessed as increase in NOXA protein level
[23] = test system: Mus musculus; test: Toxicity in human A375 cells xenografted NOD/SCID/gamma-2 knockout mouse assessed as induction of body weight loss at 7.5 to 15 mg/kg, ip once per day for 8 days; format: functional, organism-based
[24] = test system: Mus musculus; test: Toxicity in human A375 cells xenografted NOD/SCID/gamma-2 knockout mouse assessed as effect on behaviour at 7.5 to 15 mg/kg, ip once per day for 8 days; format: functional, organism-based
[25] = biological target: T1, Ubiquitin carboxyl-terminal hydrolase 5 (Homo sapiens); test: Inhibition of USP5 in Vemurafenib resistant human A375 cells assessed as reduction in ERK phosphorylation
[26] = test system: Mus musculus; test: Toxicity in human A375 cells xenografted NOD/SCID/gamma-2 knockout mouse assessed as effect on mobility at 7.5 to 15 mg/kg, ip once per day for 8 days; format: functional, organism-based
[27] = test system: CD34-positive blood stem/progenitor cell; test: Induction of apoptosis in human CD34+ cells at 0.3125 to 5 uM incubated for 24 hrs by annexin V staining based flow cytometry; conditions: cd34-positive (myeloid/lymphoid) cell
[28] = biological target: T1, Ubiquitin carboxyl-terminal hydrolase 5 (Homo sapiens); test: Inhibition of USP5 in Vemurafenib […] human A375R cells assessed as reduction in STAT3 phosphorylation
[29] = test system: A375/R; test: Induction of apoptosis in human A375R cells assessed as induction of caspase-3 activation; format: functional, cell-based
[30] = test system: MM1.S; test: Induction of apoptosis in human MM1S cells at 0.3125 to 5 uM incubated for 24 hrs by annexin V staining based flow cytometry; format: functional, cell-based
[31] = biological target: Ubiquitin carboxyl-terminal hydrolase 9X (Homo sapiens) (UniProt Q93008); test: Inhibition of USP9x in Vemurafenib sensitive human A375 cells

## CCCC(NC(=O)/C(C#N)=C/c1nc(Cl)ccc1Cl)c1ccc(OCCN2CCOCC2)cc1 (stereo unspecified)
[1]
  Activity: Active
[2]
  inhibition: Active
[3]
  TGI: Active
[4]
  AUC(0-t): 291 to 349 ng·h/mL
[5]
  AUC(0-t): 3570 to 3730 ng·h/mL
[6]
  TGI: Active
[7]
  inhibition: Active
[8]
  Activity: Active
[9]
  concentration at 7 h: 38.6 to 208 ng/mL
[10]
  Activity: Not toxic
[11]
  Activity: inactive
[12]
  inhibition: Active
[13]
  Activity: Active
[14]
  concentration at 4 h: 44.5 to 57.1 ng/mL
[15]
  concentration at 4 h: 126 to 289 ng/mL
[16]
  inhibition: Active
[17]
  TGI: Active
[18]
  inhibition (INH): Active
[19]
  Activity: Active
[20]
  inhibition: Active
[21]
  TGI: Active
[22]
  inhibition: Active
[23]
  Activity: Not toxic
[24]
  Activity: Not toxic
[25]
  inhibition: Active
[26]
  Activity: Not toxic
[27]
  Activity: Non-Toxic
[28]
  inhibition: Active
[29]
  Activity: Active
[30]
  Activity: Active
[31]
  inhibition: Active
